Data: the supplement of paper PMC11061612

Columns and labels:
[1] = system: SK-OV-3 (Ovarian Carcinoma); test: combination Emax (second highest fraction inhibited in the dose matrix, 72 h); higher = more inhibition; extreme values may be limits of the assay
In short: (§1)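 Cell lines grown in DMEM/F12 or RPMI with 10% FBS were plated in 1536-well plates and held 24 hours at 37°C, 5% CO2 before 72 hours of exposure to two-drug dose matrices, with DMSO typically at 0.2%. CellTiter-Glo 2.0 luminescence gave viability, which was converted to inhibition. Vehicle wells were set to 0 and blank wells to 1. Combination Emax is the second-highest inhibition in the matrix, and Bliss excess is the observed combination effect minus the expected EA + EB − EA·EB, where EA and EB are the single-agent effects.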

[2] = system: 8305C (Thyroid Gland Carcinoma); test: as above
In short: as §1

[3] = system: HDLM-2 (Hodgkin's Lymphoma); test: as above
In short: as §1

[4] = system: UMC-11 (Other Solid Carcinomas); test: as above
In short: as §1

NB14 (Neuroblastoma) = test: as above
In short: as §1

[5] = system: NCI-H747 (Colorectal Carcinoma); test: as above
In short: as §1

[6] = system: RKO (Colorectal Carcinoma); test: as above
In short: as §1

[7] = system: SUP-T1 (T-Lymphoblastic Leukemia); test: as above
In short: as §1

[8] = system: HCC-15 (Squamous Cell Lung Carcinoma); test: as above
In short: as §1

[9] = system: TE-4 (Esophageal Squamous Cell Carcinoma); test: as above
In short: as §1

[10] = system: RT-112 (Bladder Carcinoma); test: as above
In short: as §1

[11] = system: KYSE-410 (Esophageal Squamous Cell Carcinoma); test: as above
In short: as §1

[12] = system: RPMI-6666 (Non-Cancerous); test: as above
In short: as §1

[13] = system: NCI-H69 (Small Cell Lung Carcinoma); test: as above
In short: as §1

NCI-H28 (Mesothelioma) = test: as above
In short: as §1

[14] = system: OVCAR-8 (Ovarian Carcinoma); test: as above
In short: as §1

[15] = system: LB771-HNC (Head and Neck Carcinoma); test: Bliss excess, mean over the matrix (fraction); higher = more synergy
In short: as §1

[16] = system: CAL-54 (Kidney Carcinoma); test: as above
In short: as §1

[17] = system: HARA (Squamous Cell Lung Carcinoma); test: as above
In short: as §1

[18] = system: CAPAN-1 (Pancreatic Carcinoma); test: as above
In short: as §1
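Throughout, for Bliss excess, mean over the matrix: after 72 h of two-drug dosing.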

Compound | combination Emax [1] | combination Emax [2] | combination Emax [3] | combination Emax [4] | combination Emax (NB14 (Neuroblastoma)) | combination Emax [5] | combination Emax [6] | combination Emax [7] | combination Emax [8] | combination Emax [9] | combination Emax [10] | combination Emax [11] | combination Emax [12] | combination Emax [13] | combination Emax (NCI-H28 (Mesothelioma)) | combination Emax [14] | Bliss excess [15] | Bliss excess [16] | Bliss excess [17] | Bliss excess [18]
CS(=O)(=O)CCNCc1ccc(-c2ccc3ncnc(Nc4ccc(OCc5cccc(F)c5)c(Cl)c4)c3c2)o1 [Lapatinib] + C[C@@H](Oc1cc(-c2cnn(C3CCNCC3)c2)cnc1N)c1c(Cl)ccc(F)c1Cl [Crizotinib] (first compound max 10 µM, 7x7, partner max 10 µM) | 0.776 | 0.94 | 0.552 | 0.703 | 0.979 | 0.926 | 0.942 | 0.875 | 0.945 | 1 | 0.941 | 0.934 | 0.843 | 0.845 | 0.622 | 0.79 | -0.0398 | -0.0801 | -0.0259 | -0.0937
CC(=O)c1c(C)c2cnc(Nc3ccc(N4CCNCC4)cn3)nc2n(C2CCCC2)c1=O [Palbociclib] + CC1(C)CCC(CN2CCN(c3ccc(C(=O)NS(=O)(=O)c4ccc(NCC5CCOCC5)c([N+](=O)[O-])c4)c(Oc4cnc5[nH]ccc5c4)c3)CC2)=C(c2ccc(Cl)cc2)C1 [Venetoclax] (first compound max 10 µM, 7x7, partner max 1 µM) | 0.144 | 0.431 | 0.731 | 0.507 | 0.734 | 0.343 | 0.315 | 0.618 | 0.177 | 0.217 | 0.279 | 0.136 | 0.797 | 0.764 | 0.389 | 0.19 | -0.0429 | -0.008 | 0.0119 | -0.019
CC(=O)c1c(C)c2cnc(Nc3ccc(N4CCNCC4)cn3)nc2n(C2CCCC2)c1=O [Palbociclib] + Cc1c2c(nn1C)CSCc1cc(n(C)n1)CSc1cc(c3ccccc3c1)OCCCc1c(C(=O)O)n(C)c3c-2c(Cl)ccc13 [AZD5991] (first compound max 10 µM, 7x7, partner max 1 µM) | 0.179 | 0.666 | 0.97 | 0.638 | 0.822 | 0.608 | 0.472 | 0.656 | 0.247 | 0.966 | 0.568 | 0.407 | 0.73 | 0.471 | 0.413 | 0.129 | -0.0622 | -0.0781 | 0.021 | -0.033
CC(=O)c1c(C)c2cnc(Nc3ccc(N4CCNCC4)cn3)nc2n(C2CCCC2)c1=O [Palbociclib] + Cn1cnc2c(F)c(Nc3ccc(Br)cc3Cl)c(C(=O)NOCCO)cc21 [Selumetinib] (first compound max 10 µM, 7x7, partner max 10 µM) | 0.237 | 0.469 | 0.335 | 0.462 | 0.705 | 0.811 | 0.715 | 0.599 | 0.547 | 0.403 | 0.427 | 0.261 | 0.65 | 0.487 | 0.379 | 0.146 | -0.0893 | -0.0125 | 0.0219 | -0.0741
COc1cccc(OCCCN)c1-c1cc(Nc2cnc(C#N)cn2)n[nH]1 [Prexasertib] + C=CCn1c(=O)c2cnc(Nc3ccc(N4CCN(C)CC4)cc3)nc2n1-c1cccc(C(C)(C)O)n1 [AZD1775] (first compound max 1 µM, partner max 1 µM) | 0.875 | 0.718 | 0.612 | 0.936 | 1 | 0.746 | 0.974 | 0.848 | 0.542 | 0.813 | 1 | 0.584 | 0.955 | 0.955 | 0.659 | 0.998 | 0.0424 | -0.024 | 0.075 | -0.0069
COc1cccc(OCCCN)c1-c1cc(Nc2cnc(C#N)cn2)n[nH]1 [Prexasertib] + CCc1c2c(nc3ccc(O)cc13)-c1cc3c(c(=O)n1C2)COC(=O)[C@]3(O)CC [SN-38] (first compound max 1 µM, 7x7, partner max 0.3 µM) | 0.853 | 0.823 | 0.676 | 0.959 | 1 | 0.724 | 0.909 | 0.819 | 0.857 | 0.881 | 1 | 0.705 | 0.976 | 0.896 | 0.616 | 1 | 0 | -0.115 | 0.0262 | -0.0624
COc1cccc(OCCCN)c1-c1cc(Nc2cnc(C#N)cn2)n[nH]1 [Prexasertib] + CN(C)CCCOc1ccc(-c2ccc3ncc4c(c3c2)n(C2CCOCC2)c(=O)n4C)cn1 [AZD0156] (first compound max 1 µM, 7x7, partner max 1 µM) | 0.853 | 0.737 | 0.512 | 0.902 | 1 | 0.37 | 0.891 | 0.821 | 0.187 | 0.65 | 0.975 | 0.483 | 0.977 | 0.582 | 0.626 | 0.988 | 0.0582 | 0.0611 | -0.0038 | -0.0747
COc1cccc(OCCCN)c1-c1cc(Nc2cnc(C#N)cn2)n[nH]1 [Prexasertib] + C[C@@H]1COCCN1C2=NC(=NC(=C2)C3(CC3)[S@](=N)(=O)C)C4=C5C=CNC5=NC=C4 [AZD6738] (first compound max 1 µM, 7x7, partner max 10 µM) | 0.806 | 0.718 | 0.528 | 0.866 | 1 | 0.443 | 0.946 | 0.808 | 0.33 | 0.652 | 0.992 | 0.532 | 0.955 | 0.616 | 0.592 | 0.991 | -0.0024 | -0.0883 | -0.0117 | -0.0436
COc1cccc(OCCCN)c1-c1cc(Nc2cnc(C#N)cn2)n[nH]1 [Prexasertib] + Cc1cc2ncnn2cc1Nc1ncc2c(n1)n(C1CCOCC1)c(=O)n2C [AZD7648] (first compound max 1 µM, 7x7, partner max 10 µM) | 0.842 | 0.724 | 0.583 | 0.902 | 1 | 0.396 | 0.901 | 0.821 | 0.333 | 0.597 | 0.95 | 0.504 | 0.959 | 0.583 | 0.639 | 0.984 | -0.0088 | -0.0483 | -0.0085 | -0.0274
COc1cccc(OCCCN)c1-c1cc(Nc2cnc(C#N)cn2)n[nH]1 [Prexasertib] + O=C(c1cc(Cc2n[nH]c(=O)c3ccccc23)ccc1F)N1CCN(C(=O)C2CC2)CC1 [Olaparib] (first compound max 1 µM, 7x7, partner max 10 µM) | 0.713 | 0.785 | 0.626 | 0.902 | 0.986 | 0.422 | 0.874 | 0.79 | 0.284 | 0.654 | 0.797 | 0.382 | 0.959 | 0.696 | 0.597 | 0.966 | -0.0162 | -0.0942 | -0.0682 | -0.111
COc1cc2c(cc1OCCCCCOc1cc3c(cc1OC)C(=O)N1C=C(C)C[C@H]1C=N3)N=C[C@@H]1CC(C)=CN1C2=O [SG3199] + O=C(c1cc(Cc2n[nH]c(=O)c3ccccc23)ccc1F)N1CCN(C(=O)C2CC2)CC1 [Olaparib] (first compound max 0.001 µM, 7x7, partner max 10 µM) | 0.0705 | 0.141 | 0.167 | 0.168 | 0.42 | 0.0668 | 0.114 | 0.442 | 0.145 | 0.233 | 0.1 | 0.136 | 0.501 | 0.242 | 0.0051 | 0.268 | 0.0002 | -0.0488 | -0.0066 | -0.0802
CCc1c2c(nc3ccc(O)cc13)-c1cc3c(c(=O)n1C2)COC(=O)[C@]3(O)CC [SN-38] + CN(C)CCCOc1ccc(-c2ccc3ncc4c(c3c2)n(C2CCOCC2)c(=O)n4C)cn1 [AZD0156] (first compound max 0.3 µM, 7x7, partner max 1 µM) | 0.517 | 0.572 | 0.341 | 0.303 | 0.918 | 0.408 | 0.91 | 0.853 | 0.879 | 0.402 | 0.797 | 0.254 | 0.947 | 0.738 | 0.307 | 0.849 | -0.031 | 0.005 | 0.112 | -0.0341
C[C@@H](c1ccc2nccn2c1)n1nnc2ncc(-c3cnn(C)c3)nc21 [Savolitinib] + CC1(C)CCC(CN2CCN(c3ccc(C(=O)NS(=O)(=O)c4ccc(NCC5CCOCC5)c([N+](=O)[O-])c4)c(Oc4cnc5[nH]ccc5c4)c3)CC2)=C(c2ccc(Cl)cc2)C1 [Venetoclax] (first compound max 1 µM, 7x7, partner max 1 µM) | 0.121 | 0.217 | 0.28 | 0.13 | 0.114 | 0.181 | 0.166 | 0.131 | 0.175 | 0.145 | 0.156 | 0.124 | 0.243 | 0.372 | 0.181 | 0.0706 | -0.0912 | -0.102 | -0.031 | -0.0613
